Test results reported in patent US11311501B2, “Mitoriboscins: mitochondrial-based therapeutics targeting cancer cells, bacteria, and pathogenic yeast” (LUNELLA BIOTECH, INC., priority 2017, dated 2022).
Values after ≈ are worked out from the molar mass of the structure shown. Values belong to the molecule of their own block, whether it stands above or below them.

Key:
[1] = system: twelve different cell lines, representing eight different cancer types; conditions: cited from earlier work
[2] = system: MCF7 cells; experiment: Mammosphere formation assay; type: cell-based, human; conditions: 5 μM, FIG. 5
Text: The present approach involves methods of testing compounds, and in particular mitoriboscins, for anti-cancer properties. As discussed above, vHTS and computational chemistry may be used to identify candidate mitochondrial inhibitors. Those candidates may be tested for specific anti-cancer properties. For examples, the inventors compared seven candidate compounds in parallel for their ability to inhibit mammosphere formation in MCF7 cells. […] For example, 23/G4 (Group 1) reduced mammosphere formation by 50% at this concentration. Similarly, 24/F9 (Group 2) and 24/D4 (Group 3), both reduced mammosphere formation by ˜90%.

[3] = system: MCF7 cell monolayers; experiment: Cell viability of MCF7 monolayers (SRB); type: cell-based, human; conditions: FIG. 6
Description: (§1) The present approach includes methods of confirming cell viability. Persons of skill in the art may select one or more methods for confirming cell viability suitable for the particular embodiment. The inventors initially used the Sulphorhodamine (SRB) assay, which is based on the measurement of cellular protein content. After treatment for 72 hours in 96-well plates, cells were fixed with 10% trichloroacetic acid (TCA) for 1 hour in the cold room, and were dried overnight at room temperature. Then, cells were incubated with SRB for 15 min, washed twice with 1% acetic acid, and air dried for at least 1 hour. Finally, the protein-bound dye was dissolved in a 10 mM Tris, pH 8.8 solution and read using the plate reader at 540-nm. Using the SRB assay, the inventors selected only the compounds depleting ATP levels without prominent cytotoxicity for further analysis. Prominent cytotoxicity was defined as fewer than 30% of cells still on the plate. Of course, embodiments employing other cell viability confirmation methodology may select compounds for further analysis based on other considerations as may be known in the art.
(§2) Based on this analysis, the inventors assessed the functional effects of the three candidates on overall viability in MCF7 cell monolayers and normal human fibroblasts (hTERT-BJ1 cells) (FIG. 6). […]

[4] = system: hTERT-BJ1 cells; experiment: Cell viability of normal fibroblasts; type: cell-based; conditions: 5 μM, normal human fibroblasts, FIG. 6
Description: as §1, §2

[5] = system: MCF7 cells; experiment: Seahorse XF96 metabolic flux analysis (OCR/ECAR); type: cell-based, human
Text: The present approach further involves methods of functional validation at step S105, during which a compound's function as a mitochondrial inhibitor may be confirmed. A number of methods may be used for functional validation, including, for example, metabolic flux analysis, mammosphere assays, viability assays, and antibiotic (anti-bacterial and/or anti-fungal) activity. For example, the inventors determined extracellular acidification rates (ECAR) and real-time oxygen consumption rates (OCR) for MCF7 cells using the Seahorse Extracellular Flux (XF96) analyzer (Seahorse Bioscience, MA, USA). MCF7 cells were maintained in DMEM supplemented with 10% FBS (fetal bovine serum), 2 mM GlutaMAX, and 1% Pen-Strep. 5,000 cells per well were seeded into XF96-well cell culture plates, and incubated overnight at 37° C. in a 5% CO2 humidified atmosphere. After 24 hours, cells were treated with selected compounds showing ATP-depletion without prominent cytotoxicity at various concentrations (or vehicle alone). After 72 hours of treatment, cells were washed in pre-warmed XF assay media (for OCR measurement, XF assay media was supplemented with 10 mM glucose, 1 mM Pyruvate, 2 mM L-glutamine and adjusted at pH 7.4). Cells were maintained in 175 μL/well of XF assay media at 37° C. in a non-CO2 incubator for 1 hour. During incubation, 25 μL of 80 mM glucose, 9 μM oligomycin, 1M 2-deoxyglucose (for ECAR measurement) and 25 μL of 10 μM oligomycin, 9 μM FCCP, 10 μM rotenone, 10 μM antimycin A (for OCR measurement) in XF assay media was loaded into the injection ports of the XFe-96 sensor cartridge. During the experiment, the instrument injected these inhibitors into the wells at a given time point, while ECAR/OCR was measured continuously. ECAR and OCR measurements were normalized by protein content (using the Sulphorhodamine B assay). Data sets were analyzed by XFe-96 software, using one-way ANOVA and Student's t-test calculations. All experiments were performed in triplicate, and results validated the mitochondrial inhibition effects of mitoriboscin compounds described herein. It should be appreciated that numerous methods are known for functional validation, and that persons of skill in the art may select one or more depending on the validation needs (e.g., other assays that measure or approximate mitochondrial function). The present approach involves methods of function validation of mitoriboscin compounds. For example, the inventors assessed functional validation of three candidates using the Seahorse Analyzer, which quantitatively measures oxygen consumption rate (OCR) and extracellular acidification rate (ECAR). OCR is a surrogate marker for OXPHOS and ECAR is a surrogate marker for glycolysis and L-lactate production.

[6] = system: E. coli ATCC 25922; experiment: MIC by broth dilution method; type: cell-based; conditions: E. coli ATCC 25922, 24 hours at 37° C.
Description: (§3) The minimal inhibitory concentration (MIC) of the antibacterial compounds may be determined using the broth dilution method, according to CLSI guidelines. Test compound solutions (or antibiotic solutions used as positive controls) were diluted, serially, with MHB medium. Then, the suspensions of the microorganisms, prepared from overnight cultures of bacteria in the MHB medium, at a concentration of 10^6 CFU/ml, were added to each dilution in a 1:1 ratio. McFarland standards were used as a reference to adjust the turbidity of microorganism suspensions. Growth (or lack thereof) of the microorganisms was determined after incubation for 24 hours at 37° C. by turbidimetry (wavelength of 600 nm). […] The susceptibility test by measurement of MIC was performed in triplicate and repeated three times independently.

[7] = system: K. pneumoniae ATCC 13883; experiment: MIC by broth dilution method; type: cell-based
Description: as §3

[8] = system: Staph. aureus ATCC 25923 (MSSA); experiment: MIC by broth dilution method; type: cell-based
Description: as §3

[9] = system: Strept. pyogenes ATCC 19615; experiment: MIC by broth dilution method; type: cell-based
Description: as §3

[10] = system: P. auriginosa ATCC 27853; experiment: MIC by broth dilution method; type: cell-based, P. aeruginosa
Description: as §3

[11] = system: C. albicans; experiment: MIC by broth dilution method; type: cell-based; conditions: C. albicans ATCC 13883
Description: as §3, with “nm). MIC 50 and MIC 99 are defined as the minimum inhibitory concentration of the compound required for 50% and 99% inhibition of bacterial growth.” for “nm).”, “independently. Statistical significance was determined using the Student's t-test and values of less than 0.05 were considered significant.” for “independently.”
(§4) In order to determine the minimal inhibitory concentration (MIC) for 24/F9, 24/D4 and 23/G4, the broth dilution method may be performed.

[12] = system: MRSA ATCC 43300; experiment: MIC by broth dilution method; type: cell-based, Methicillin-resistant Staphylococcus aureus
Description: as §3, with “nm). MIC 50 and MIC 99 are defined as the minimum inhibitory concentration of the compound required for 50% and 99% inhibition of bacterial growth.” for “nm).”, “independently. Statistical significance was determined using the Student's t-test and values of less than 0.05 were considered significant.” for “independently.”
as §4

[13] = Staph. aureus ATCC 25923 (Table 3)

Structure (SMILES): CC[C@H]1OC(=O)[C@H](C)[C@@H](O[C@H]2C[C@@](C)(OC)[C@@H](O)[C@H](C)O2)[C@H](C)[C@@H](O[C@@H]2O[C@H](C)C[C@H](N(C)C)[C@H]2O)[C@](C)(O)C[C@@H](C)C(=O)[C@H](C)[C@@H](O)[C@]1(C)O [Erithromycin]
efficacy in cancer cell lines [1]: show efficacy

MIC 50% [6]: >16 µg/mL | MIC 99% [6]: >32 µg/mL | MIC 50% [7]: 16 µg/mL (≈ 37.7 µM) | MIC 99% [7]: 32 µg/mL (≈ 75.5 µM) | MIC 50% ([8]; MSSA ATCC 25923 (Table 4)): 4 µg/mL (≈ 9.44 µM) | MIC 99% ([8]; MSSA ATCC 25923 (Table 4)): 8 µg/mL (≈ 18.9 µM) | MIC 50% [8, 13]: 4 µg/mL (≈ 9.44 µM) | MIC 99% [8, 13]: 8 µg/mL (≈ 18.9 µM) | MIC 50% [9]: 4 µg/mL (≈ 9.44 µM) | MIC 99% [9]: 8 µg/mL (≈ 18.9 µM) | MIC 50% [10]: 16 µg/mL (≈ 37.7 µM) | MIC 99% [10]: 32 µg/mL (≈ 75.5 µM) | MIC 50% [11]: 8 µg/mL (≈ 18.9 µM) | MIC 99% [11]: 16 µg/mL (≈ 37.7 µM) | MIC 50% ([12]; MRSA ATCC 43300): 16 µg/mL (≈ 37.7 µM) | MIC 99% ([12]; MRSA ATCC 43300): >32 µg/mL
Structure (SMILES): OC1C(NCc2ccccc2)CCCC1Oc1ccccc1Oc1ccc(Cl)cc1 (stereo not shown) [23/G4]
reduction of mammosphere formation [2]: 50% | effect on overall cell viability of MCF7 monolayers ([3]; 500 nM and 2.5 μM): little or no effect | reduction of viability of MCF7 cells ([3]; 5 μM): 70% | effect on viability of hTERT-BJ1 cells [4]: no effect | reduction of ATP levels ([5]; 500 nM): > 50% | reduction of ATP levels ([5]; 2.5 μM, FIG. 7): ~75% | reduction in ATP levels ([5]; 5 μM, FIG. 10): greater than 75% | increase in glycolysis rates ([5]; ECAR): more than 1.5 fold | inhibition of mitochondrial oxygen-consumption ([5]; FIGS. 7, 8 and 9): dose-dependently inhibited | rank order potency to reduce maximal respiration and ATP production ([5]; top 10 hits, FIG. 10): top 6 | sensitivity of MRSA ([12]; MRSA, summary of Table 4): sensitive
